The subject of the first experiment is DLD-1 BRCA2−/− cells. Description: Homologous recombination synthetic lethal inhibition of proliferation, DLD-1 BRCA2-/- (Cell Titre Glo 3D). It is filed as cell-based. To be noted: DLD-1 BRCA2 −/−, mean. The essentials:
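DLD-1 BRCA2−/− (3,000 cells/mL) and parental DLD-1 (1,500 cells/mL) cells in phenol red-free RPMI 1640 with 10% FBS were exposed to a 10-point, three-fold compound series from 10 μM to 0.51 nM at 37 °C, 5% CO2. Medium and compound were replenished on day 6. CellTiter-Glo 3D luminescence was read on day 7 (DLD-1) or day 12 (BRCA2−/−), and IC50 was taken as 50% reduction of maximum signal.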
For `CC1(Oc2ncnc3c2nc(-c2ccc(O[C@H]4CC[C@@H](C(=O)O)CC4)cc2Cl)n3Cc2ccccc2C#N)CC1` [Example U16, (1s,4s)-4-(3-chloro-4-(9-(2-cyanobenzyl)-6-(1-methylcyclopropoxy)-9H-purin-8-yl)phenoxy)cyclohexane-1-carboxylic acid], the “POLQ PD Prolif Lumin BRCA2 −/− mean pIC50” value is listed as 6.4.

Still in this experiment, the particulars now being: Homo sapiens, DLD-1, 288 h, DLD-1 BRCA2−/− cells, 12 days; read-out: POLQ PD Prolif Lumin BRCA2 −/− mean pIC50 (converted).
In the case of `CC1(Oc2ncnc3c2nc(-c2ccc(OCCN4CCN[C@@H](CC#N)C4)cc2Cl)n3Cc2ccccc2)CC1` [Example R23, (S)-2-(4-(2-(4-(9-benzyl-6-(1-methylcyclopropoxy)-9H-purin-8-yl)-3-chlorophenoxy)ethyl)piperazin-2-yl)acetonitrile], the IC50 is 63.1 nM.

The experiment is the same for the next values; noted with them: Homo sapiens, DLD-1, DLD-1 BRCA2-/- proliferation; column head only partly shown; read-out: POLQ PD Prolif Lumin (converted).
Consider `Cc1ccnc(Cn2c(-c3ccc(C(=O)N(C)CCC#N)cc3Cl)nc3c(OC4(C)CC4)ncnc32)c1` [Example T286, 3-chloro-N-(2-cyanoethyl)-N-methyl-4-(6-(1-methylcyclopropoxy)-9-((4-methylpyridin-2-yl)methyl)-9H-purin-8-yl)benzamide], for which the IC50 is 1260 nM.
The same measure, in the same setting: the same measure for `C/C(=C\COc1ccc(-c2nc3c(OC4(C)CC4)ncnc3n2Cc2cccc(Cl)c2)c(Cl)c1)C(=O)O` [Example T255, (E)-4-(3-chloro-4-(9-(3-chlorobenzyl)-6-(1-methylcyclopropoxy)-9H-purin-8-yl)phenoxy)-2-methylbut-2-enoic acid]: 316 nM.

The same experiment, now with this note: Homo sapiens, DLD-1, DLD-1 BRCA2 −/− cells; mean; read-out: POLQ PD Prolif Lumin BRCA2 −/− mean pIC50 (converted).
`Cc1nc(C)c(Cn2c(-c3ccc(CC(N)=O)cc3Cl)nc3c(OC4(C)CC4)ncnc32)s1` [Example T25, 2-(3-chloro-4-(9-((2,4-dimethylthiazol-5-yl)methyl)-6-(1-methylcyclopropoxy)-9H-purin-8-yl)phenyl)acetamide]: the IC50 is 1000 nM.
Same read-out and setting: the same measure for `Cc1nc(Cn2c(-c3ccc(CC(N)=O)cc3Cl)nc3c(OC4(C)CC4)ncnc32)sc1C` [Example T24, 2-(3-chloro-4-(9-((4,5-dimethylthiazol-2-yl)methyl)-6-(1-methylcyclopropoxy)-9H-purin-8-yl)phenyl)acetamide]: 794 nM; for `CC1(Oc2ncnc3c2nc(-c2ccc(CC(N)=O)cc2Cl)n3Cc2nnc(C3CC3)o2)CC1` [Example T21, 2-(3-chloro-4-(9-((5-cyclopropyl-1,3,4-oxadiazol-2-yl)methyl)-6-(1-methylcyclopropoxy)-9H-purin-8-yl)phenyl)acetamide]: more than 10000 nM.
The same measure, in the same setting: the same measure for `Cc1cnn(C)c1Cn1c(-c2ccc(CC(N)=O)cc2Cl)nc2c(OC3(C)CC3)ncnc21` [Example T31, 2-(3-chloro-4-(9-((1,4-dimethyl-1H-pyrazol-5-yl)methyl)-6-(1-methylcyclopropoxy)-9H-purin-8-yl)phenyl)acetamide]: more than 10000 nM.

Still in this experiment, the particulars now being: Homo sapiens, DLD-1, DLD-1 BRCA2 −/−, mean; read-out: POLQ PD Prolif Lumin BRCA2 −/− mean pIC50 (converted).
For `CC1(Oc2ncnc3c2nc(-c2cccc(OCC(F)(F)CC(=O)O)c2Cl)n3Cc2cccc(Cl)c2)CC1` [Example U63, 4-(2-chloro-3-(9-(3-chlorobenzyl)-6-(1-methylcyclopropoxy)-9H-purin-8-yl)phenoxy)-3,3-difluorobutanoic acid], the IC50 is 501 nM.
On the same count and under the same terms, to `CC1(Oc2ncnc3c2nc(-c2ccc(OCCCC(C)(C)C(=O)O)cc2Cl)n3Cc2ccccc2C#N)CC1` [Example U21, 5-(3-chloro-4-(9-(2-cyanobenzyl)-6-(1-methylcyclopropoxy)-9H-purin-8-yl)phenoxy)-2,2-dimethylpentanoic acid] belongs 158 nM.

Still in this experiment, the particulars now being: Homo sapiens, DLD-1, first proliferation column (c5), taken as DLD-1 BRCA2-/-; read-out: POLQ PD Prolif Lumin (converted).
`Cc1ccnc(Cn2c(-c3ccc(O[C@@H]4CC[C@@H](O)C4)cc3Cl)nc3c(OC4(C)CC4)ncnc32)c1` (relative stereo) [Example T330, rel-(1R,3R)-3-(3-chloro-4-(6-(1-methylcyclopropoxy)-9-((4-methylpyridin-2-yl)methyl)-9H-purin-8-yl)phenoxy)cyclopentan-1-ol]: the IC50 was 200 nM.
Same read-out and setting: to `CC1(Oc2ncnc3c2nc(-c2cccc(OCC(C)(C)C(=O)O)c2Cl)n3Cc2cccc(Cl)c2)CC1` [Example T298, 3-(2-chloro-3-(9-(3-chlorobenzyl)-6-(1-methylcyclopropoxy)-9H-purin-8-yl)phenoxy)-2,2-dimethylpropanoic acid] belongs 631 nM.
On the same count and under the same terms, the same measure for `Cc1ccnc(Cn2c(-c3ccc(OCC(=O)NC4CC4)cc3Cl)nc3c(OC4(C)CC4)ncnc32)c1` [Example T318, 2-(3-chloro-4-(6-(1-methylcyclopropoxy)-9-((4-methylpyridin-2-yl)methyl)-9H-purin-8-yl)phenoxy)-N-cyclopropylacetamide]: 398 nM.
The same measure, in the same setting: the same measure for `Cc1ccnc(Cn2c(-c3ccc(OCC(=O)NC4COC4)cc3Cl)nc3c(OC4(C)CC4)ncnc32)c1` [Example T323, 2-(3-chloro-4-(6-(1-methylcyclopropoxy)-9-((4-methylpyridin-2-yl)methyl)-9H-purin-8-yl)phenoxy)-N-(oxetan-3-yl)acetamide]: 200 nM; for `Cc1ccnc(Cn2c(-c3ccc(CC(=O)NCCCO)cc3Cl)nc3c(OC4(C)CC4)ncnc32)c1` [Example T370, 2-(3-chloro-4-(6-(1-methylcyclopropoxy)-9-((4-methylpyridin-2-yl)methyl)-9H-purin-8-yl)phenyl)-N-(3-hydroxypropyl)acetamide]: 1000 nM.

Staying with this experiment, now noted: Homo sapiens, DLD-1, first proliferation column (c5); DLD-1 BRCA2-/-; read-out: POLQ PD Prolif Lumin (converted).
`C[C@@H]1CNCCN1CCOc1ccc(-c2nc3c(OC4(C)CC4)ncnc3n2Cc2cc(Cl)ccn2)c(Cl)c1` [Example T522, (R)-8-(2-chloro-4-(2-(2-methylpiperazin-1-yl)ethoxy)phenyl)-9-((4-chloropyridin-2-yl)methyl)-6-(1-methylcyclopropoxy)-9H-purine]: the IC50 is 251 nM.
The same measure, in the same setting: the same measure for `CC1(Oc2ncnc3c2nc(-c2ccc(OCCN4C[C@H]5C[C@@H]4CN5)cc2Cl)n3Cc2cc(Cl)ccn2)CC1` [Example T485, 8-(4-(2-((1R,4R)-2,5-diazabicyclo[2.2.1]heptan-2-yl)ethoxy)-2-chlorophenyl)-9-((4-chloropyridin-2-yl)methyl)-6-(1-methylcyclopropoxy)-9H-purine]: 501 nM; for `Cc1ccnc(Cn2c(-c3ccc(OCC(=O)NCC(F)F)cc3Cl)nc3c(OC4(C)CC4)ncnc32)c1` [Example T166, 2-(3-chloro-4-(6-(1-methylcyclopropoxy)-9-((4-methylpyridin-2-yl)methyl)-9H-purin-8-yl)phenoxy)-N-(2,2-difluoroethyl)acetamide]: 316 nM; for `C#CCNC(=O)c1ccc(-c2nc3c(OC4(C)CC4)ncnc3n2Cc2cc(C)ccn2)c(Cl)c1` [Example T152, 3-chloro-4-(6-(1-methylcyclopropoxy)-9-((4-methylpyridin-2-yl)methyl)-9H-purin-8-yl)-N-(prop-2-yn-1-yl)benzamide]: 398 nM.
On the same count and under the same terms, the same measure for `Cc1ccnc(Cn2c(-c3ccc(C(=O)NC4CC4)cc3Cl)nc3c(OC4(C)CC4)ncnc32)c1` [Example T170, 3-chloro-N-cyclopropyl-4-(6-(1-methylcyclopropoxy)-9-((4-methylpyridin-2-yl)methyl)-9H-purin-8-yl)benzamide]: 631 nM; for `CC1(Oc2ncnc3c2nc(-c2ccc(OCCN4CCNCC4C(F)F)cc2Cl)n3Cc2ccccc2)CC1` (stereo not shown) [Example T567, 9-benzyl-8-(2-chloro-4-(2-(2-(difluoromethyl)piperazin-1-yl)ethoxy)phenyl)-6-(1-methylcyclopropoxy)-9H-purine]: 158 nM.
Same read-out and setting: to `Cc1ccnc(Cn2c(-c3ccc(C(=O)NC4COC4)cc3Cl)nc3c(OC4(C)CC4)ncnc32)c1` [Example T177, 3-chloro-4-(6-(1-methylcyclopropoxy)-9-((4-methylpyridin-2-yl)methyl)-9H-purin-8-yl)-N-(oxetan-3-yl)benzamide] belongs 1000 nM.

(Values after patent publication US20250195530A1, “POLQ INHIBITORS” (ASTRAZENECA AB, priority 2022, published 2025).)
